Data set [1] concerns Mycobacterium marinum. As to the kind of experiment: microbe, parasite or virus in culture. Type of data set: cell-based. Conditions: clinical isolate, read-out: Minimum inhibitory concentration (MIC) M. marinum.
For data set [2], the system named is Mycobacterium bovis. As to the kind of experiment: microbe, parasite or virus in culture. It counts as cell-based. The note with it: Mycobacterium tuberculosis variant bovis, read-out: Minimum inhibitory concentration (MIC) M. bovis.
For data set [3], the system named is Mycobacterium fortuitum. Kind of data set: microbe, parasite or virus in culture. It counts as cell-based. The note with it: Mycolicibacterium fortuitum.
In data set [4] the test system is RPE1 (normal human immortalized retinal epithelial) cell line. As to the kind of experiment: Antiproliferative properties by MTT technique. Conditions: RPE1 cells, 100 μM. It counts as cell-based. The method, then:
Antiproliferative properties of the synthesized compounds were screened against RPE1 (normal human immortalized retinal epithelial) cell line to determine the toxicity/selectivity towards normal cell by the standard MTT technique.[23]
Antiproliferative properties of the synthesized compounds were tested against RPE1 (normal human immortalized retinal epithelial) cell line at 100 μM to determine the toxicity/selectivity towards normal cell by the standard MTT technique.[23]

Data set [5] has as its system M. tuberculosis Erdman strain expressing luciferase. Kind of data set: microbe, parasite or virus in culture. It counts as cell-based, Mycobacterium tuberculosis. The note with it: Mycobacterium tuberculosis, ERDMAN, 168 h; 30 μg mL^−1, pH 7.0, 7 days, vs untreated controls; read-out: Observed % growth inhibition at 30 µg/mL.
The subject of data set [6] is Enterococcus faecalis. As to the kind of experiment: Aerobic antibacterial MIC, standard dilution technique. Type of data set: cell-based. Conditions: Enterococcus faecalis, clinical isolate; value in parentheses; read-out: Minimum inhibitory concentration (MIC) Enterococcus faecalis. The source says:
Antibacterial properties were investigated for the synthesized compounds against a variety of Gram-positive (Staphylococcus aureus, Enterococcus faecalis) and Gram-negative (Klebsiella pneumonia, Proteus vulgaris, Pseudomonas aeruginosa) clinical isolate bacteria utilizing the standard technique.[21]

[7] abbreviates: clinical isolate, observed MIC, read-out: Minimum inhibitory concentration (MIC) M. fortuitum.
The mark [8] stands for this setting: clinical isolate, read-out: Minimum inhibitory concentration (MIC) M. fortuitum.
Setting [9] is: M. fortuitum, observed values listed with the BMLR-QSAR model, read-out: Observed MIC (Table S6).

Molecules are shown by their SMILES. ≈ marks a conversion by molar mass, not a printed value. Where “and” joins values, the source holds several entries; their conditions need not be identical. Equal entries are not always repeated. Where two headings read alike, the source gives them in different places.

As usually defined, the melting point is the temperature, or range, at which the solid turns liquid.

For the compound `CC(C)[C@H](NC(=O)c1cnccn1)C(=O)O` [10b, (Pyrazine-2-carbonyl)-L-valine], the melting point is 160 to 162 °C. Also, the MIC in data set [1] (observed MIC) is over 89.6 µM. Also, the MIC in data set [1] was over 20 µg/mL. Moreover, the MIC in data set [2] is > 20 µg/mL and > 89.6 µM. The MIC in data set [3] (setting [7]) was over 89.6 µM. Also, the MIC in data set [3] (setting [8]) is over 20 µg/mL. Also, the “Percentage of cell proliferation ± SD” value in data set [4] is 82.1 ± 3.0%. Also, in data set [5], the inhibition at 30 µg/mL is 91%. For the same compound, in data set [6], the MIC was 0.13 µM (≈ 0.029 µg/mL).

`CC(C)[C@H](NC(=O)c1cnccn1)C(=O)NNC(=O)c1ccncc1` [12b, (S)-N-(1-(2-Isonicotinoylhydrazineyl)-3-methyl-1-oxobutan-2-yl)pyrazine-2-carboxamide] showed a melting point of 175 to 177 °C. Further, the MIC in data set [1] (observed MIC) worked out at 58.4 µM. Further, in data set [1], the MIC was 20 µg/mL. The MIC in data set [2] was > 20 µg/mL and > 58.4 µM. Besides, the MIC in data set [3] (setting [9]) amounted to 58400 µM. For the same compound, in data set [3] (setting [7]), the MIC is 58.4 µM. In data set [3] (setting [8]), the MIC came out at 20 µg/mL. The “Percentage of cell proliferation ± SD” value in data set [4] is on record as 96.4 ± 2.7%. Moreover, in data set [5], the inhibition at 30 µg/mL amounted to 84.2%. Moreover, the MIC in data set [6] is 0.33 µM (≈ 0.113 µg/mL).

In turn, `O=C(NNC(=O)[C@H](Cc1ccccc1)NC(=O)c1cnccn1)c1ccncc1` [12e, (S)-N-(1-(2-Isonicotinoylhydrazineyl)-1-oxo-3-phenylpropan-2-yl)pyrazine-2-carboxamide] came in with a melting point of 177 to 179 °C. Further, the MIC in data set [1] (observed MIC) was 51.2 µM. Further, the MIC in data set [1] is 20 µg/mL. Moreover, in data set [2], the MIC was > 20 µg/mL and > 51.2 µM. Also, the MIC in data set [3] (setting [9]) came out at 51200 µM. The MIC in data set [3] (setting [7]) turned out to be 51.2 µM. For the same compound, the MIC in data set [3] (setting [8]) worked out at 20 µg/mL. For the same compound, the “Percentage of cell proliferation ± SD” value in data set [4] is 83.2 ± 5.7%. Moreover, in data set [5], the inhibition at 30 µg/mL came out at 94.8%.

These data come from paper PMC9065575, “Synthesis, computational studies, antimycobacterial and antibacterial properties of pyrazinoic acid–isoniazid hybrid conjugates” (RSC Advances, 2019).
